Measured values published in patent publication US4205163A, “Tylosin derivatives” (Sanraku-Ocean Co., Ltd., priority 1977, dated 1980).
Values after ≈ are worked out from the molar mass of the structure shown.

Experiments:
Test in all cases: antimicrobial activity, broth dilution method
Type in all cases: cell-based
[1] = system: Bacillus cereus ATCC 9634; details: Bacillus cereus, ATCC9634, Bacillus cereus ATCC 9634; broth dilution; read-out: minimum inhibitory concentration (MIC)
Protocol: (§1) Antimicrobial activity of the new antibiotics according to the present invention was measured on various pathogenic microorganisms by the broth dilution mehtod. Tab. […] The new antibiotics show a similar antimicrobial spectrum to that of tylosin as shown in Tab. 4. All the compounds have an excellent antimicrobial activity mainly on gram-positive bacteria. […] Test microorganisms with an asterisk mark (*) in Tab. 4 are all drug-resistant strains that were clinically isolated. More in detail, Staphylococcus aureus MS-8710 is resistant to tylosin, penicillin, tetracycline, erythromycin and leucomycin. Staphylococcus aureus MS-9931 is resistant to tylosin, penicillin, erythromycin, tetracycline, leucomycin, spiramycin and josamycin. And also Streptococcus piogenes is resistant to tylosin, erythromycin, oleandomycin and leucomycin.

Sarcina lutea ATCC 9341 = details: Micrococcus luteus, ATCC9341, Sarcina lutea ATCC 9341, read-out: minimum inhibitory concentration (MIC)
Protocol: as §1

[2] = system: Staphylococcus aureus FDA-209P; details: Staphylococcus aureus, FDA209P, Staphylococcus aureus FDA-209P; broth dilution; read-out: minimum inhibitory concentration (MIC)
Protocol: as §1

[3] = system: Staphylococcus aureus MS-8710; details: Staphylococcus aureus, MS8710, Staphylococcus aureus MS-8710, drug-resistant clinical isolate; read-out: minimum inhibitory concentration (MIC)
Protocol: as §1

[4] = system: Staphylococcus aureus MS-9931; details: MS9931; Staphylococcus aureus MS-9931, drug-resistant clinical isolate; read-out: minimum inhibitory concentration (MIC)
Protocol: as §1

[5] = system: Staphylococcus aureus MS-9937; details: MS9937; Staphylococcus aureus MS-9937, drug-resistant clinical isolate; read-out: minimum inhibitory concentration (MIC)
Protocol: as §1

[6] = system: Staphylococcus aureus SMITH; details: Staphylococcus aureus, Staphylococcus aureus SMITH; broth dilution; read-out: minimum inhibitory concentration (MIC)
Protocol: as §1

[7] = system: Streptococcus pyogenes MH-771; details: Streptococcus pyogenes, MH771, Streptococcus pyogenes MH-771, drug-resistant clinical isolate; read-out: minimum inhibitory concentration (MIC)
Protocol: as §1

MIC [1] [µg/mL] | MIC (Sarcina lutea ATCC 9341) [µg/mL] | MIC [2] [µg/mL] | MIC [3] [µg/mL] | MIC [4] [µg/mL] | MIC [5] [µg/mL] | MIC [6] [µg/mL] | MIC [7] [µg/mL] | SMILES
1.56 (≈ 1.44 µM) | 0.39 (≈ 0.36 µM) | 1.56 (≈ 1.44 µM) | 12.5 (≈ 11.5 µM) | 25 (≈ 23.1 µM) | 25 (≈ 23.1 µM) | 1.56 (≈ 1.44 µM) | 50 (≈ 46.1 µM) | CCC1OC(=O)CC(O)C(C)C(OC2OC(C)C(OC3CC(C)(O)C(OC(=O)Cc4cccc5ccccc45)C(C)O3)C(N(C)C)C2O)C(CC=O)CC(C)C(=O)C=CC(C)=CC1COC1OC(C)C(O)C(OC)C1OC (stereo not drawn) [Compound 22, 4"-α-naphthylacetyltylosin]
0.78 (≈ 0.693 µM) | 0.39 (≈ 0.346 µM) | 0.78 (≈ 0.693 µM) | 25 (≈ 22.2 µM) | 25 (≈ 22.2 µM) | 50 (≈ 44.4 µM) | 0.78 (≈ 0.693 µM) | 25 (≈ 22.2 µM) | CCC1OC(=O)CC(OC(C)=O)C(C)C(OC2OC(C)C(OC3CC(C)(O)C(OC(=O)Cc4cccc5ccccc45)C(C)O3)C(N(C)C)C2O)C(CC=O)CC(C)C(=O)C=CC(C)=CC1COC1OC(C)C(O)C(OC)C1OC (stereo not drawn) [Compound 23, 3-acetyl-4"-α-naphthylacetyltylosin]
0.78 (≈ 0.715 µM) | 0.39 (≈ 0.358 µM) | 1.56 (≈ 1.43 µM) | 50 (≈ 45.9 µM) | 50 (≈ 45.9 µM) | 50 (≈ 45.9 µM) | 0.78 (≈ 0.715 µM) | 25 (≈ 22.9 µM) | CCC1OC(=O)CC(OC(C)=O)C(C)C(OC2OC(C)C(OC3CC(C)(O)C(OC(=O)CCc4ccccc4)C(C)O3)C(N(C)C)C2O)C(CC=O)CC(C)C(=O)C=CC(C)=CC1COC1OC(C)C(O)C(OC)C1OC (stereo not drawn) [Compound 25, 3-acetyl-4"-β-phenylpropionyltylosin]
0.78 (≈ 0.705 µM) | 0.39 (≈ 0.353 µM) | 0.78 (≈ 0.705 µM) | 50 (≈ 45.2 µM) | 50 (≈ 45.2 µM) | 50 (≈ 45.2 µM) | 0.78 (≈ 0.705 µM) | 12.5 (≈ 11.3 µM) | CCC1OC(=O)CC(OC(C)=O)C(C)C(OC2OC(C)C(OC3CC(C)(O)C(OC(=O)C(O)Cc4ccccc4)C(C)O3)C(N(C)C)C2O)C(CC=O)CC(C)C(=O)C=CC(C)=CC1COC1OC(C)C(O)C(OC)C1OC [Compound 26, 3-acetyl-4"-L-[(α-hydroxy-β-phenyl)propionyl]tylosin]
0.39 (≈ 0.362 µM) | 0.19 (≈ 0.176 µM) | 0.39 (≈ 0.362 µM) | 12.5 (≈ 11.6 µM) | 12.5 (≈ 11.6 µM) | 12.5 (≈ 11.6 µM) | 0.39 (≈ 0.362 µM) | 6.25 (≈ 5.8 µM) | CCC1OC(=O)CC(OC(C)=O)C(C)C(OC2OC(C)C(OC3CC(C)(O)C(OC(=O)Cc4cccnc4)C(C)O3)C(N(C)C)C2O)C(CC=O)CC(C)C(=O)C=CC(C)=CC1COC1OC(C)C(O)C(OC)C1OC (stereo not drawn) [Compound 31, 3-acetyl-4"-(3-pyridyl)acetyltylosin]
1.56 (≈ 1.44 µM) | 0.78 (≈ 0.722 µM) | 1.56 (≈ 1.44 µM) | 25 (≈ 23.1 µM) | 25 (≈ 23.1 µM) | 50 (≈ 46.3 µM) | 1.56 (≈ 1.44 µM) | 12.5 (≈ 11.6 µM) | CCC1OC(=O)CC(O)C(C)C(OC2OC(C)C(OC3CC(C)(O)C(OC(=O)CSc4ccc(C)cc4)C(C)O3)C(N(C)C)C2O)C(CC=O)CC(C)C(=O)C=CC(C)=CC1COC1OC(C)C(O)C(OC)C1OC (stereo not drawn) [Compound 35, 4"-(4-methylphenyl)thioacetyltylosin]
0.78 (≈ 0.722 µM) | 0.39 (≈ 0.361 µM) | 0.78 (≈ 0.722 µM) | 25 (≈ 23.1 µM) | 50 (≈ 46.3 µM) | 50 (≈ 46.3 µM) | 0.78 (≈ 0.722 µM) | 25 (≈ 23.1 µM) | CCC1OC(=O)CC(O)C(C)C(OC2OC(C)C(OC3CC(C)(O)C(OC(=O)CSc4cccc(C)c4)C(C)O3)C(N(C)C)C2O)C(CC=O)CC(C)C(=O)C=CC(C)=CC1COC1OC(C)C(O)C(OC)C1OC (stereo not drawn) [Compound 36, 4"-(3-methylphenyl)thioacetyltylosin]

SMILES | MIC [1] [µg/mL] | MIC (Sarcina lutea ATCC 9341) [µg/mL] | MIC [2] [µg/mL] | MIC [3] [µg/mL] | MIC [4] [µg/mL] | MIC [5] [µg/mL] | MIC [6] [µg/mL] | MIC [7] [µg/mL]
CCC1OC(=O)CC(OC(C)=O)C(C)C(OC2OC(C)C(OC3CC(C)(O)C(OC(=O)C(Cc4ccccc4)OC(C)=O)C(C)O3)C(N(C)C)C2O)C(CC=O)CC(C)C(=O)C=CC(C)=CC1COC1OC(C)C(O)C(OC)C1OC [Compound 27, 3-acetyl-4"-L-[(α-acetoxy-β-phenyl)propionyl]tylosin] | 0.78 (≈ 0.679 µM) | 0.39 (≈ 0.34 µM) | 0.78 (≈ 0.679 µM) | 50 (≈ 43.5 µM) | 50 (≈ 43.5 µM) | 50 (≈ 43.5 µM) | 0.78 (≈ 0.679 µM) | 25 (≈ 21.8 µM)
CCC1OC(=O)CC(OC(C)=O)C(C)C(OC2OC(C)C(OC3CC(C)(O)C(OC(=O)C(Cc4ccc(OC(C)=O)cc4)OC(C)=O)C(C)O3)C(N(C)C)C2O)C(CC=O)CC(C)C(=O)C=CC(C)=CC1COC1OC(C)C(O)C(OC)C1OC (stereo not drawn) [Compound 28, 3-acetyl-4"-[α-acetoxy-β-(4-acetoxyphenyl)propionyl]tylosin] | 1.56 (≈ 1.29 µM) | 0.78 (≈ 0.647 µM) | 1.56 (≈ 1.29 µM) | 25 (≈ 20.7 µM) | 50 (≈ 41.4 µM) | 25 (≈ 20.7 µM) | 1.56 (≈ 1.29 µM) | 25 (≈ 20.7 µM)
